Laboratory results: patent publication US20140045805A1, “Fragrance Compositions and Other Compositions Which Contain Naturally Occurring Substances Found in Corals” (priority 2007, published 2014)
Like-named read-outs stand apart in the source and are kept apart here.

Tests used:
[1] = test system: peripheral nasal chemosensory receptors; settings: cited from earlier work; for Cross adaptation / fatigue of the receptors toward androstadienone: repeated stimulation, local electrical response of human vomeronasal epithelium, Monti-Bloch et al. 1994
[2] = test system: healthy volunteers (men and women); assay: Behavioral effects by modified DABS-70 inventory after nasal exposure; assay type: in vivo, human; settings: for Sensuality cluster mean: modified DABS-70, items scored 0-4
Method: We assessed the resulting physiological responses and behavioral changes induced by nasal exposure to 12 ng pregna-5,20-dien-3β-ol in 76 volunteers (38 women and 38 men), age 18 to 46 (Table 1) using a placebo-controlled, single blind and crossover study design. The items of the modified DABS-70 were rearranged during consecutive administrations, in order to minimize the effect of learning.
Forty of the items on the standard DABS-70 questionnaire are descriptions of “ways people feel”, and subjects indicate whether they had experienced each emotion “never”, “rarely”, “sometimes”, “frequently”, or “always” in the last two weeks. The remaining 30 items on the standard DABS-70 questionnaire are personality characteristics for which subjects describe themselves as “not at all,” “a little bit,” “moderately” “quite a bit” or “extremely,” depending on the degree to which they feel each trait is typical of them. In the modified DABS-70 questionnaire, sixty-seven items were selected and assessed and during the testing the questions were randomized to minimize or prevent “learning” the questionnaire by the volunteers. This psychometric instrument was chosen because several items were of a sexual connotation and could be used to quantify the effects of pregna-5,20-dien-3β-ol on sexuality.
Subjects who participated were asked, as a baseline, to fill out the modified DABS-70 as to their personality characteristics and feelings as they currently perceived them. Each item was quantified ranging from an individual's perception of “not at all” (0) to “extremely” (4). At the beginning of the questionnaire was a statement that they might feel differently after the blind and randomized exposure to the contents of a perfumery grade smelling strip positioned on the upper lip. The baseline electrophysiological measurements were performed after the questionnaire was completed, and again 5 minutes before the second randomized exposure (FIG. 3). Twenty minutes after the first randomized exposure to control or pregna-5,20-dien-3β-ol and again 20 minutes after the second randomized exposure to control or pregna-5,20-dien-3β-ol (in both instances, 5 minutes after the second and fourth set of electrophysiological measurements), the modified DABS-70 was administered again (FIG. 4). This task took approximately 10 minutes to complete, and the order of the questions of each consecutive modified DABS-70 administered was rearranged in order to minimize the effect of learning during prior administration of the test.
Active substance (pregna-5,20-dien-3β-ol) and control were freshly prepared on 0.7 cm×10 cm perfumery grade smelling strips 24 hours before the experiment. A perfumery grade smelling strip was positioned on the upper lip of the subject for delivery of control or active substance to the nasal passages for a period of 20 minutes. Each breath carried vapors of pregna-5,20-dien-3β-ol or control (air) from the paper strip to the nasal passages.
Perfumery grade smelling strips containing either pregna-5,20-dien-3β-ol or control were prepared as follows: 100 μl of stock solution containing 100 mg pregna-5,20-dien-3β-ol/10 mL ethanol (95%) was added to a clean paper strip. Ethanol was allowed to evaporate overnight in a clean fume hood, and 1 mg of dry crystals of pregna-5,20-dien-3β-ol remained embedded in the dried perfumery grade smelling strip. Control was a perfumery grade smelling strip prepared following the same procedure but the solution was devoid of active substance.
The following assumptions were used to calculate the quantity of pregna-5,20-dien-3β-ol delivered to the nasal passages during a study session: a) the quantity of pregna-5,20-dien-3β-ol arriving to the nasal passages with each breath is ≈40 pg (determined as described below); b) the average respiratory rate at rest in men and women is ≈15 breaths per minute; and c) the subject was exposed to pregna-5,20-dien-3β-ol for 20 min during the entire study session. […]

[3] = test system: healthy volunteers (men and women); assay: as above; assay type: in vivo, human; settings: 12 ng nasal
[4] = biological target: T1, human testicular 17α Hydroxylase/C17-20-Lyase (Homo sapiens, UniProt P05093); settings: Li et al. 1996; Brodie et al. U.S. Pat. No. 5,994,334; cited from earlier work
T1 sequence (P05093 1-508): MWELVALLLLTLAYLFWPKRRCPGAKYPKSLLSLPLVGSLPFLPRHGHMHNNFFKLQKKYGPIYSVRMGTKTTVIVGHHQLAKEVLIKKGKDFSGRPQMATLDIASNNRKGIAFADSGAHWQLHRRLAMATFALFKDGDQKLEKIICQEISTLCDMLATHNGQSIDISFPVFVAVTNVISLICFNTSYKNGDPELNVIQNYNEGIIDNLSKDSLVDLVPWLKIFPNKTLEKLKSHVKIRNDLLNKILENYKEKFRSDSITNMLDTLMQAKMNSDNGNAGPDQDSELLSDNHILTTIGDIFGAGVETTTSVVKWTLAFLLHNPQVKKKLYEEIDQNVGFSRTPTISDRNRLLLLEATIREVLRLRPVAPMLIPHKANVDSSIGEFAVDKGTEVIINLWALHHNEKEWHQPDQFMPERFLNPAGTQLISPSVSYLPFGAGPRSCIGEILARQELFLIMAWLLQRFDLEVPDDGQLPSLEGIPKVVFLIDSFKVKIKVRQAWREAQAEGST

[5] = test system: healthy volunteers (men and women); assay: Local and general tolerability and safety of airborne nasal delivery; assay type: in vivo, human; settings: 12 ng intranasal; for Adverse effects reported: during the intervention and 24 hours after
Method: The physiologic and psychological effects of pregna-5,20-dien-3β-ol were investigated in men and women. Additionally, the local and general tolerability and safety of pregna-5,20-dien-3β-ol delivered airborne to the nasal passages were also evaluated.
After completion of physiologic recordings and the modified DABS-70 (#3), all surface electrodes were removed and the subject went through an exit interview lasting 5 minutes. At this time the investigator recorded again the arterial blood pressure and also inquired the subject about his or her state of feelings, and also any possible adverse effect appearing during the study session.

[6] = MALE, 12 ng nasal, modified DABS-70 item
[7] = men (N = 38), 12 ng nasal over 20 min, modified DABS-70
[8] = men and women, regardless of gender, 12 ng nasal, p<0.0001
[9] = women (N = 38), 12 ng nasal over 20 min, modified DABS-70

For `C=C[C@H]1CC[C@H]2[C@@H]3CC=C4C[C@@H](O)CC[C@]4(C)[C@H]3CC[C@]12C` [pregna-5,20-dien-3β-ol, Pregna-5,20-dien-3β-ol], the “Depolarization of the electrogram of peripheral nasal chemosensory receptors” value ([1]; androstadienone 27 picograms, muricin aglycone 30 picograms, adapted from Monti-Bloch et al. (1994)) is given as “robust depolarization”, the “Cross adaptation / fatigue of the receptors toward androstadienone” value ([1]; listed as Muricin aglycone) is given as “elicit cross adaptation” and the “Cross adaptation / fatigue of the receptors toward androstadienone” value ([1]; listed as muricin aglycone) is given as “produces fatigue of the receptors”. For the same molecule, the “ENERGETIC item, ACTIVE MEAN” value ([2]; FEMALE, 12 ng nasal, modified DABS-70 item) was 2.07, the “LOVING item, ACTIVE MEAN” value [2, 6] was 2.42 and the “WARM item, ACTIVE MEAN” value [2, 6] was 2.25. The Arousal/Excitement cluster mean [2, 7] was 2.006, the Negativity cluster mean [2, 7] was 0.246 and the “Personal Well-Being cluster mean” value [2, 7] was 2.607. For the same molecule, the “Social Warmth/Friendliness cluster mean” value [2, 7] was 2.147, the Sensuality cluster mean ([2]; men (N = 38), 12 ng nasal over 20 min) was 1.286 and the “Social Warmth and Friendliness cluster, overall response versus control” value ([2]; men and women, regardless of gender, 12 ng nasal, p<0.00001) was “active>control”. For the same molecule, the “Arousal and Excitement cluster, overall response versus control” value [2, 8] was “active>control”, the “Sensuality cluster, overall response versus control” value [2, 8] was “active>control” and the “Negativity cluster, response versus control” value ([2]; men and women, 12 ng nasal) was “not associated with being exposed to active versus control treatment”. For the same molecule, the Arousal/Excitement cluster mean [2, 9] was 1.857, the Negativity cluster mean [2, 9] was 0.238 and the “Social Warmth/Friendliness cluster mean” value [2, 9] was 1.92. For the same molecule, the Sensuality cluster mean ([2]; women (N = 38), 12 ng nasal over 20 min) was 1.446, the “Negativity cluster, response versus control” value ([3]; listed as muricin aglycone) was “no effect on negativity” and the “Social Warmth and Friendliness cluster, overall response versus control” value ([3]; regardless of gender, p<0.00001, listed as muricin aglycone) was “enhanced levels”. For the same molecule, the “Inhibition of human testicular 17α Hydroxylase/C17-20-Lyase” value [4] was “little activity”, the “Arterial blood pressure, beginning of session vs exit interview” value [5] was “absence of significant arterial blood pressure difference” and the Tolerability ([5]; airborne, all volunteers of both gender groups) was “well tolerated”. The Adverse effects reported [5] was “no adverse effects reported”, the Adverse effects reported ([5]; listed as Pregna-5,20-dien-3β-ol) was “no reports of local or general adverse side effects” and the “Local nasal discomfort / clinical examination of the nasal passages” value ([5]; end of the recording session) was “did not reveal local lesions and/or inflammation”.
